# Data: patent publication US20260207615A1, “FLUOROPYRIDOPYRIMIDINE AND FLUOROQUINAZOLINE DERIVATIES AND METHODS OF USE THEREOF” (Frontier Medicines Corporation, priority 2022, published 2026)
# Target: T1, KRAS G12C and cRAF interaction (Homo sapiens, UniProt P01116, C118S/C51S/C80L/G12C)
# T1 construct: truncated version comprising amino acids 1-169
# Test: Inhibition of KRAS G12C and cRAF binding (AlphaScreen)
# Assay type: biochemical
# Details: KRAS G12C (Cys-light, aa 1-169) preloaded with GMPPNP, cRaf RBD (aa 50-131), 2 hours incubation
# Method in brief: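 Biotin-AviTag KRAS G12C (Cys-light C51S/C80L/C118S, aa 1-169, GMPPNP-loaded; 0.5 nM final)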
# T1 sequence (P01116 1-169 isoform P01116-2 G12C/C51S/C80L/C118S): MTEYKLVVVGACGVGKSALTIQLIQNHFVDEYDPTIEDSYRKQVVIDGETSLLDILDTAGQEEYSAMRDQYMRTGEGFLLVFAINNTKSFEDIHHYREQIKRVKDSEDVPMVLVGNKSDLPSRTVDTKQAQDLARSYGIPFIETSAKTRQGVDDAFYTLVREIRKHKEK
row,SMILES,IC50 [nM]
1,"O=C(C#CCN1CC2CCC(C1)O2)N1CCN(c2nc(OC[C@@]34CCCN3C[C@H](F)C4)nc3c(F)c(-c4cccc5cccc(Cl)c45)ncc23)CC12COC2 [Example 47, 4-(8-oxa-3-azabicyclo[3.2.1]octan-3-yl)-1-(8-(7-(8-chloronaphthalen-1-yl)-8-fluoro-2-(((2R,7aS)-2-fluorotetrahydro-1H-pyrrolizin-7a(5H)-yl)methoxy)pyrido[4,3-d]pyrimidin-4-yl)-2-oxa-5,8-diazaspiro[3.5]nonan-5-yl) but-2-yn-1-one]",100 to 500
2,"C#Cc1c(F)ccc2cccc(-c3ncc4c(N5CCN(C(=O)/C=C/c6cc(C)nc(C)n6)C6(COC6)C5)nc(OC[C@@]56CCCN5C[C@H](F)C6)nc4c3F)c12 [Example 48, (E)-3-(2,6-dimethylpyrimidin-4-yl)-1-(8-(7-(8-ethynyl-7-fluoronaphthalen-1-yl)-8-fluoro-2-(((2R,7aS)-2-fluorotetrahydro-1H-pyrrolizin-7a(5H)-yl)methoxy)pyrido[4,3-d]pyrimidin-4-yl)-2-oxa-5,8-diazaspiro[3.5]nonan-5-yl) prop-2-en-1-one]",10 to 100
3,"C#Cc1c(F)ccc2cccc(-c3ncc4c(N5CCN(C(=O)/C(F)=C/c6ccnc(C)n6)C6(COC6)C5)nc(OC[C@@]56CCCN5C[C@H](F)C6)nc4c3F)c12 [Example 49, (Z)-1-(8-(7-(8-ethynyl-7-fluoronaphthalen-1-yl)-8-fluoro-2-(((2R,7aS)-2-fluorotetrahydro-1H-pyrrolizin-7a(5H)-yl)methoxy)pyrido[4,3-d]pyrimidin-4-yl)-2-oxa-5,8-diazaspiro[3.5]nonan-5-yl)-2-fluoro-3-(2-methylpyrimidin-4-yl) prop-2-en-1-one]",< 10
4,"C#Cc1c(F)ccc2cccc(-c3ncc4c(N5CCN(C(=O)C=C)C6(COC6)C5)nc(OC[C@@]56CCCN5C[C@H](F)C6)nc4c3F)c12 [Example 50, 1-(8-(7-(8-ethynyl-7-fluoronaphthalen-1-yl)-8-fluoro-2-(((2R,7aS)-2-fluorotetrahydro-1H-pyrrolizin-7a(5H)-yl)methoxy)pyrido[4,3-d]pyrimidin-4-yl)-2-oxa-5,8-diazaspiro[3.5]nonan-5-yl) prop-2-en-1-one]",< 10
5,"C=CC(=O)N1CCN(c2nc(OC[C@@]34CCCN3C[C@H](F)C4)nc3c(F)c(-c4c(Cl)c(C)cc5[nH]ncc45)ncc23)CC12COC2 [Example 51, 1-(8-(7-(5-chloro-6-methyl-1H-indazol-4-yl)-8-fluoro-2-(((2R,7aS)-2-fluorotetrahydro-1H-pyrrolizin-7a(5H)-yl)methoxy)pyrido[4,3-d]pyrimidin-4-yl)-2-oxa-5,8-diazaspiro[3.5]nonan-5-yl) prop-2-en-1-one]",10 to 100
6,"C=CC(=O)N1CCN(c2nc(OC[C@@]34CCCN3C[C@H](F)C4)nc3c(F)c(-c4c(C)cc(F)c5[nH]ncc45)ncc23)CC12COC2 [Example 52, 1-(8-(8-fluoro-7-(7-fluoro-5-methyl-1H-indazol-4-yl)-2-(((2R,7aS)-2-fluorotetrahydro-1H-pyrrolizin-7a(5H)-yl)methoxy)pyrido[4,3-d]pyrimidin-4-yl)-2-oxa-5,8-diazaspiro[3.5]nonan-5-yl) prop-2-en-1-one]",≥ 500
7,"C=CC(=O)N1C(C)CN(c2nc(OC[C@@]34CCCN3C[C@H](F)C4)nc3c(F)c(-c4cccc5cccc(Cl)c45)ncc23)CC12COC2 (stereo partly drawn) [Example 53, 1-(8-(7-(8-chloronaphthalen-1-yl)-8-fluoro-2-(((2R,7aS)-2-fluorotetrahydro-1H-pyrrolizin-7a(5H)-yl)methoxy)pyrido[4,3-d]pyrimidin-4-yl)-6-methyl-2-oxa-5,8-diazaspiro[3.5]nonan-5-yl) prop-2-en-1-one]",10 to 100
8,"C=CC(=O)N1CCN(c2nc(OC[C@@]34CCCN3C[C@H](F)C4)nc3c(F)c(-c4cc(O)cc(Cl)c4C(F)(F)F)ncc23)CC12COC2 [Example 54, 1-(8-(7-(3-chloro-5-hydroxy-2-(trifluoromethyl)phenyl)-8-fluoro-2-(((2R,7aS)-2-fluorotetrahydro-1H-pyrrolizin-7a(5H)-yl)methoxy)pyrido[4,3-d]pyrimidin-4-yl)-2-oxa-5,8-diazaspiro[3.5]nonan-5-yl) prop-2-en-1-one]",< 10
9,"CN(C)C/C=C/C(=O)N1CCN(c2nc(OC[C@@]34CCCN3C[C@H](F)C4)nc3c(F)c(-c4cc(O)cc(Cl)c4C4CC4)ncc23)CC12COC2 [Example 55, (E)-1-(8-(7-(3-chloro-2-cyclopropyl-5-hydroxyphenyl)-8-fluoro-2-(((2R,7aS)-2-fluorotetrahydro-1H-pyrrolizin-7a(5H)-yl)methoxy)pyrido[4,3-d]pyrimidin-4-yl)-2-oxa-5,8-diazaspiro[3.5]nonan-5-yl)-4-(dimethylamino)but-2-en-1-one]",< 10
10,"O=C(/C=C/CN1[C@@H]2CC[C@H]1COC2)N1CCN(c2nc(OC[C@@]34CCCN3C[C@H](F)C4)nc3c(F)c(-c4cccc(Cl)c4C(F)(F)F)ncc23)CC12COC2 [Example 56, (E)-4-((1R,5S)-3-oxa-8-azabicyclo[3.2.1]octan-8-yl)-1-(8-(7-(3-chloro-2-(trifluoromethyl)phenyl)-8-fluoro-2-(((2R,7aS)-2-fluorotetrahydro-1H-pyrrolizin-7a(5H)-yl)methoxy)pyrido[4,3-d]pyrimidin-4-yl)-2-oxa-5,8-diazaspiro[3.5]nonan-5-yl) but-2-en-1-one]",< 10
11,"O=C(/C=C/CN1C[C@@H]2C[C@H]1CO2)N1CCN(c2nc(OC[C@@]34CCCN3C[C@H](F)C4)nc3c(F)c(-c4cccc(Cl)c4C(F)(F)F)ncc23)CC12COC2 [Example 57, (E)-4-((1S,4S)-2-oxa-5-azabicyclo[2.2.1]heptan-5-yl)-1-(8-(7-(3-chloro-2-(trifluoromethyl)phenyl)-8-fluoro-2-(((2R,7aS)-2-fluorotetrahydro-1H-pyrrolizin-7a(5H)-yl)methoxy)pyrido[4,3-d]pyrimidin-4-yl)-2-oxa-5,8-diazaspiro[3.5]nonan-5-yl) but-2-en-1-one]",10 to 100
12,"Cc1cc(/C=C(\F)C(=O)N2CCN(c3nc(OC[C@@]45CCCN4C[C@H](F)C5)nc4c(F)c(-c5cccc6ccc(F)c(F)c56)ncc34)CC23COC3)nc(C)n1 [Example 59, (Z)-1-(8-(7-(7,8-difluoronaphthalen-1-yl)-8-fluoro-2-(((2R,7aS)-2-fluorotetrahydro-1H-pyrrolizin-7a(5H)-yl)methoxy)pyrido[4,3-d]pyrimidin-4-yl)-2-oxa-5,8-diazaspiro[3.5]nonan-5-yl)-3-(2,6-dimethylpyrimidin-4-yl)-2-fluoroprop-2-en-1-one]",< 10
13,"Cc1nccc(/C=C(\F)C(=O)N2CCN(c3nc(OC[C@@]45CCCN4C[C@H](F)C5)nc4c(F)c(-c5cccc6ccc(F)c(F)c56)ncc34)CC23COC3)n1 [Example 60, (Z)-1-(8-(7-(7,8-difluoronaphthalen-1-yl)-8-fluoro-2-(((2R,7aS)-2-fluorotetrahydro-1H-pyrrolizin-7a(5H)-yl)methoxy)pyrido[4,3-d]pyrimidin-4-yl)-2-oxa-5,8-diazaspiro[3.5]nonan-5-yl)-2-fluoro-3-(2-methylpyrimidin-4-yl) prop-2-en-1-one]",< 10
14,Cc1nccc(/C=C(\F)C(=O)N2CCN(c3nc(OC[C@@]45CCCN4C[C@H](F)C5)nc4c(F)c(-c5cccc6cccc(Cl)c56)ncc34)CC23COC3)n1 [Example 61],≥ 500
15,"CCc1c(F)ccc2cccc(-c3ncc4c(N5CCN(C(=O)/C(F)=C/c6ccnc(C)n6)C6(COC6)C5)nc(OC[C@@]56CCCN5C[C@H](F)C6)nc4c3F)c12 [Example 62, (Z)-1-(8-(7-(8-ethyl-7-fluoronaphthalen-1-yl)-8-fluoro-2-(((2R,7aS)-2-fluorotetrahydro-1H-pyrrolizin-7a(5H)-yl)methoxy)pyrido[4,3-d]pyrimidin-4-yl)-2-oxa-5,8-diazaspiro[3.5]nonan-5-yl)-2-fluoro-3-(2-methylpyrimidin-4-yl) prop-2-en-1-one]",< 10
16,"C#Cc1c(F)ccc2cccc(-c3ncc4c(N5CCN(C(=O)/C(F)=C/c6cc(C)nc(C)n6)C6(COC6)C5)nc(OC[C@@]56CCCN5C[C@H](F)C6)nc4c3F)c12 [Example 63, (Z)-3-(2,6-dimethylpyrimidin-4-yl)-1-(8-(7-(8-ethynyl-7-fluoronaphthalen-1-yl)-8-fluoro-2-(((2R,7aS)-2-fluorotetrahydro-1H-pyrrolizin-7a(5H)-yl)methoxy)pyrido[4,3-d]pyrimidin-4-yl)-2-oxa-5,8-diazaspiro[3.5]nonan-5-yl)-2-fluoroprop-2-en-1-one]",< 10
17,"C=CC(=O)N1[C@H](C)CN(c2nc(OC[C@@]34CCCN3C[C@H](F)C4)nc3c(F)c(-c4cccc5ccc(F)c(F)c45)ncc23)CC12COC2 [Example 64, 1-((R)-8-(7-(7,8-difluoronaphthalen-1-yl)-8-fluoro-2-(((2R,7aS)-2-fluorotetrahydro-1H-pyrrolizin-7a(5H)-yl)methoxy)pyrido[4,3-d]pyrimidin-4-yl)-6-methyl-2-oxa-5,8-diazaspiro[3.5]nonan-5-yl) prop-2-en-1-one]",< 10
18,C=CC(=O)N1CC(C)N(c2nc(OC[C@@]34CCCN3C[C@H](F)C4)nc3c(F)c(-c4cccc5cccc(Cl)c45)ncc23)CC12COC2 (stereo partly drawn) [Example 65],10 to 100
19,C#Cc1c(F)ccc2cccc(-c3ncc4c(N5CCN(C(=O)/C=C/[C@H]6CCN6C)C6(COC6)C5)nc(OC[C@@]56CCCN5C[C@H](F)C6)nc4c3F)c12 [Example 66],10 to 100
20,CN1CC[C@@H]1/C=C/C(=O)N1CCN(c2nc(OC[C@@]34CCCN3C[C@H](F)C4)nc3c(F)c(-c4cccc5ccc(F)c(F)c45)ncc23)CC12COC2 [Example 67],10 to 100
21,"O=C(/C=C/CN1C[C@H]2C[C@@H]1CO2)N1CCN(c2nc(OC[C@@]34CCCN3C[C@H](F)C4)nc3c(F)c(-c4cccc(Cl)c4C(F)(F)F)ncc23)CC12COC2 [Example 68, (E)-4-((1R,4R)-2-oxa-5-azabicyclo[2.2.1]heptan-5-yl)-1-(8-(7-(3-chloro-2-(trifluoromethyl)phenyl)-8-fluoro-2-(((2R,7aS)-2-fluorotetrahydro-1H-pyrrolizin-7a(5H)-yl)methoxy)pyrido[4,3-d]pyrimidin-4-yl)-2-oxa-5,8-diazaspiro[3.5]nonan-5-yl) but-2-en-1-one]",< 10
